Assay results taken from patent US9067913B2, “Fumigillol type compounds and methods of making and using same” (Zafgen, Inc., priority 2010, dated 2015).
Marks after values point to notes of the source that are not given here.

Columns and labels:
[1] = Study C: 10 day study, weight loss in mice on 60% kcal fat diet; type: in vivo, C57BL/6 mice; settings: 10% DMSO
Method: Study C was a 10 day study that included 20 week old C57BL/6 mice on 60% kcal fat diet for 14 weeks treated with either 10% DMSO or the same vehicle containing an amount of drug to deliver an oral dose of 1 mg/kg or 3 mg/kg of the compound 6-O-(4-dimethylaminoethoxy)cinnamoyl fumagillol (dimethyl analogue) for 10 days.

[2] = Study B: 10 day study, weight loss in mice on 60% kcal fat diet; type: in vivo, C57BL/6 mice; settings: PO 3 mg/kg, 10% DMSO
Method: Study B was a 10 day study that included 20 week old C57BL/6 mice on 60% kcal fat diet for 14 weeks treated with either 10% DMSO or the same vehicle containing an amount of drug to deliver a dose of 3 mg/kg of compound A for 10 days. FIG. 2 depicts the 7-day PO efficacy at 3 mg/kg of compound A.

[3] = weight loss study in obese mice (high-fat diet induced), Example 2; type: in vivo, C57BL/6NTac mice; settings: 1.0 mg/kg in 10% gelucire in deionised water, once a day for 7 days, 60% fat diet
Method: A weight loss study was conducted in obese mice. The mice in this study were not genetically obese, but prior to and during the study, obesity was induced by a high-fat diet. Twelve week-old C57BL/6NTac mice, maintained on a 60% fat diet prior to and during the study, were separated into seven groups, eight animals per group. Average body weight of the mice was approximately 47 g at the start of the study.
Mice were administered 1.0 mg/kg of compound A in 10% gelucire in deionised water. Mice received administrations once a day for 7 days. The one week weight loss was 11.9%.

MetAP2 [4] = target: T1, MetAP2 (Homo sapiens, UniProt P50579); assay: MetAP2 enzyme assay; type: biochemical; settings: for inhibition at 0.05 µM: 50 nM; for inhibition at 0.2 µM: 200 nM
T1 sequence (P50579 whole entry, species assumed): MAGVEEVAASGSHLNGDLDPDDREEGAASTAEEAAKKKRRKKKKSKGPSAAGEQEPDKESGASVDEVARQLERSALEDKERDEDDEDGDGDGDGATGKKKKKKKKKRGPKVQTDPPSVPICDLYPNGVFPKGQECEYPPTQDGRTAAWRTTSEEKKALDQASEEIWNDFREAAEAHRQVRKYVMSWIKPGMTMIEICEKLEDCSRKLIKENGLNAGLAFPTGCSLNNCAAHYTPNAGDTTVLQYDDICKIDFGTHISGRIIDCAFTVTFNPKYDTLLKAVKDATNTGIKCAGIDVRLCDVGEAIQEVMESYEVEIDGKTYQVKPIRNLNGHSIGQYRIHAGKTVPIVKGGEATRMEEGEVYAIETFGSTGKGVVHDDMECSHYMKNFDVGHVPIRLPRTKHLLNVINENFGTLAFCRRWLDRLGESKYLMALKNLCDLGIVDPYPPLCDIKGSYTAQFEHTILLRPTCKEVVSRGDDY
Method: Compound A was tested in a MetAP2 enzyme assay. Table 1 indicates the inhibition results for various concentrations: […]

MetAP2 [5] = assay: Example 4: testes biomarker, N-terminal peptide of mouse thioredoxin (SEQ ID NO. 1) by LC-MS/MS; type: in vivo; settings: 3 mg/kg for 10 days, testes harvested at end of study
From the text: At the end of the study testes from the mice were harvested, homogenized and digested with endoproteinase Glu-C.

MetAP2 [6] = target: T1, MetAP2; assay: cell based assay, inhibition of MetAP2
Method: In a cell based assay, the inhibition of MetAP2 was <10 nM.

[7] = Example 4: body weight loss compared to vehicle, 3 mg/kg for 10 days; type: in vivo, C57BL/6 mice; settings: compared with compound (i) and compound (ii)
Method: 20 week old C57BL/6 mice on 60% kcal fat diet for 14 weeks treated with either 10% DMSO or the same vehicle containing an amount of drug to deliver a dose of 3 mg/kg of compound (ii) (as identified above), compound (i) [fumigillol], and compound A for 10 days. FIG. 3 indicates the body weight loss compared to vehicle for each compound.

[8] = Study A: 7 day screen, weight loss in mice on 45% kcal fat diet; type: in vivo, C57BL/6 mice
Method: Three studies were conducted using 18-20 week old C57BL/6 mice. Study A was a 7 day screen that included 18-20 week old C57BL/6 mice that were provided a 45% kcal fat diet for 14 weeks, and treated with either 10% Gelucire in water or the same vehicle containing an amount of compound A to deliver a dose of 1 mg/kg dosed daily for 7 days.

Compound	weight loss at day 7 ([1]; PO 1 mg/kg) [%^c]	weight loss at day 7 ([1]; PO 3 mg/kg) [%^c]	weight loss at day 7 [2] [%^b]	one week weight loss [3] [%]	inhibition at 0.05 µM (MetAP2 [4]; 1 hr) [%]	inhibition at 0.2 µM (MetAP2 [4]; 1 hr) [%]	inhibition at 0.05 µM (MetAP2 [4]; 2 hr) [%]	inhibition at 0.2 µM (MetAP2 [4]; 2 hr) [%]	inhibition at 0.05 µM (MetAP2 [4]; 4 hr) [%]	inhibition at 0.2 µM (MetAP2 [4]; 4 hr) [%]	availability to the testes tissue (concentration of SEQ ID NO. 1, FIG. 4) (MetAP2 [5])	IC50 (MetAP2 [6]) [nM]	weight loss potency (FIG. 3) [7]	weight loss at day 7 ([8]; PO 1 mg/kg daily, Study A, 10% Gelucire in water, 45% kcal fat diet) [%^a]	potency dosed orally as compared to 6-O-(4-dimethylaminoethoxy)cinnamoyl fumagillol ([8]; day 7 weight loss, studies A, B, C compared) [times]
CO[C@@H]1[C@H](OC(=O)C=Cc2ccc(OCCN(C)C)cc2)CC[C@]2(CO2)[C@H]1[C@@]1(C)O[C@@H]1CC=C(C)C [dimethyl analogue, 6-O-(4-dimethylaminoethoxy)cinnamoyl fumagillol]	1.1	11	–	–	–	–	–	–	–	–	–	–	–	–	–
CCN(CC)CCOc1ccc(/C=C/C(=O)O[C@@H]2CC[C@]3(CO3)[C@@H]([C@@]3(C)O[C@@H]3CC=C(C)C)[C@@H]2OC)cc1 [Compound A]	–	–	13	11.9	42	100	45	100	71	100	not as available to the testes tissue as compared to the other tested compounds	< 10	comparable weight loss potency	12	≥ 3
